Measurements as given in ChEMBL document CHEMBL3407340, “Synthesis, radiolabeling and evaluation of novel 4-oxo-quinoline derivatives as PET tracers for imaging cannabinoid type 2 receptor” (Eur J Med Chem, 2015).
Activity calls are given as the source filed them. No cut-off for these calls is given here.

Key:
Cannabinoid receptor 1 = Cannabinoid receptor 1 (Homo sapiens, UniProt P21554); assay: Displacement of [3H]-CP-55940 from human CB1 receptor transfected in CHOK1 cells after 90 mins by liquid scintillation counting analysis; type: cell-based, CHO-K1
Sequence of Cannabinoid receptor 1 (P21554 whole entry): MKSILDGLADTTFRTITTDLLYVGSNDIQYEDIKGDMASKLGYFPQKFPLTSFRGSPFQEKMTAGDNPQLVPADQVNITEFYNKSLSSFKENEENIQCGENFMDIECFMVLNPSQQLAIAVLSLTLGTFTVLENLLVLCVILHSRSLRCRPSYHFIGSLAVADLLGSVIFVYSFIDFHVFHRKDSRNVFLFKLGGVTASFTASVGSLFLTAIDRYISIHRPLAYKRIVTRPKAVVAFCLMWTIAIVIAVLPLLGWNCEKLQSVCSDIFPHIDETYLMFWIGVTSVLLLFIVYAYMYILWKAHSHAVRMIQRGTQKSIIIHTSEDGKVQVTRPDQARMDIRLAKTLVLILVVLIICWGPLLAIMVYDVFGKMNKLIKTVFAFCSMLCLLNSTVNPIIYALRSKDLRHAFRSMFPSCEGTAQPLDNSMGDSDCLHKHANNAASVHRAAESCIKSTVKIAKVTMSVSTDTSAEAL

[1] = target: Cannabinoid receptor 2 (Mus musculus) (UniProt P47936); assay: Binding affinity to CB2 receptor in mouse spleen at 0.4 nM after 15 mins by autoradiography in presence of GW405833; settings: tested as the 11C-labelled form
Sequence of Cannabinoid receptor 2 (Mus musculus) (P47936 whole entry): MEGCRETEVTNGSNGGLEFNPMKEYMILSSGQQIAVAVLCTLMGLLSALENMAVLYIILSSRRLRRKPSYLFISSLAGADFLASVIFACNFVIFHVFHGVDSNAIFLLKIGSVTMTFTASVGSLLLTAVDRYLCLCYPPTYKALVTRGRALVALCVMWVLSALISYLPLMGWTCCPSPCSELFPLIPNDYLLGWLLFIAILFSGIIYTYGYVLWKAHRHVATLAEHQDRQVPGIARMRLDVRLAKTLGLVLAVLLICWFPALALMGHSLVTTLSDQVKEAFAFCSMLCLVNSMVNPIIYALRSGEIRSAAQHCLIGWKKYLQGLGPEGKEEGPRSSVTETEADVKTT

[2] = target: Cannabinoid receptor 2 (Rattus norvegicus) (UniProt Q9QZN9); assay: Binding affinity to CB2 receptor in rat spleen at 0.4 nM after 15 mins by autoradiography in presence of GW405833; type: tissue-based; settings: tested as the 11C-labelled form
Sequence of Cannabinoid receptor 2 (Rattus norvegicus) (Q9QZN9 whole entry): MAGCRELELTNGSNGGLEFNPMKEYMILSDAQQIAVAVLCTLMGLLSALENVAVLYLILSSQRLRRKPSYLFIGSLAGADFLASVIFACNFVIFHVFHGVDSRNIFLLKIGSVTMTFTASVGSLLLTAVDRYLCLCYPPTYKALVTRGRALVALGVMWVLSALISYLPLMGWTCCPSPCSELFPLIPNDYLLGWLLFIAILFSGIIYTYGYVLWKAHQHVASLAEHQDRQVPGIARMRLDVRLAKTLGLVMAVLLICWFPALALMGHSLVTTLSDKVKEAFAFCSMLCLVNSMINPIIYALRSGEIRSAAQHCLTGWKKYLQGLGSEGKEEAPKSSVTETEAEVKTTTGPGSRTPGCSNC

SMILES | Ki (Cannabinoid receptor 1) [µM] | Activity [1] | Activity [2]
COc1cccc2c(=O)c(C(=O)NC(C)(C)C)cn(CCCF)c12 | > 10 |  | 
CCOCCn1cc(C(=O)NCCc2ccccc2)c(=O)c2cccc(OC)c21 | > 10 |  | 
CCOCCn1cc(C(=O)NC23CC4CC(CC(C4)C2)C3)c(=O)c2cccc(OC)c21 | > 10 | inactive | inactive
CCCCn1cc(C(=O)NC(C)(C)C)c(=O)c2cccc(OC)c21 | > 10 |  | 
CCCCn1cc(C(=O)NC23CC4CC(CC(C4)C2)C3)c(=O)c2cccc(OC)c21 | > 10 |  | 
